Laboratory results published in patent US7531567B2, “Use of a medicament containing an effector of the glutathione metabolism together with α-lipoic acid in kidney replacement therapy” (Serumwerk Bernburg AG, priority 2001, dated 2009).
Counter-ions that a name gives are not always drawn.

Columns and labels:
Format in all cases: cell-based, human
peritoneal macrophages [1] = test: degree of differentiation and activation of peritoneal macrophages (CD15, CD11c, CD69, CD71); settings: incubation for 6 days, control = 1.0, α-lipoic acid 50 μM, ambroxole 10 μM, enalapril 5 μM, captopril 10 μM; for CD15/69: CD69 on CD15-positive cells; for CD11c/71: CD71 on CD11c-positive cells
Description: Peritoneal macrophages were isolated from patients under kidney replacement therapy according to the processes described under example 3 and cultured in the presence of the combinations of α-lipoic acid and effectors of the glutathione metabolism named according to the invention. After incubation for 6 days, the degree of differentiation of the peritoneal macrophages was determined cytofluorometrically by means of the expression of the cell surface antigens CD15 and CD11c, and the degree of cellular activation by means of the coexpression of the activation antigens CD69 on CD15-positive cells and CD71 on CD11c-positive cells.

peritoneal macrophages [2] = test: phagocytic ability of peritoneal macrophages (fluorochrome-labelled bacteria); settings: treatment period of 6 days; for Phagocytosis rate: α-lipoic acid 50 μM, ambroxole 10 μM, enalapril 5 μM, captopril 10 μM
Description: Peritoneal macrophages were isolated analogously to the procedure described under example 3 and cultured ex vivo. The determination of the phagocytic power was carried out by means of a cytofluorometric test at the individual cell level. In this test, the macrophages were cocultured with opsonized and fluorochrome-labelled bacteria. The amount of bacteria taken up in a defined time period was recorded quantitatively by means of the fluorescence intensity in the macrophages and was regarded as a measure of their phagocytic capacity. The influence of the combinations used according to the invention on the phagocytic ability of the peritoneal macrophages after a treatment period of 6 days is presented in Table 3.

peritoneal macrophages [3] = test: stability of membrane-bound thiol restitution in peritoneal macrophages in the dialysis model; settings: dialysis model over 14 days; FIG. 7
Description: The peritoneal macrophages described under example 3, which were thiol-restituted by means of the combinations used according to the invention, were removed from this test system after 6 days and cultured in a dialysis model over a period of 14 days. For this, the peritoneal macrophages were adapted to mobile collagen IV-coated matrices and brought into contact with conventional dialysis solution 3 times daily for 60 minutes each. This model served here for the induction of a combined […]/osmotic stress. In FIG. 6, the action of the combination of α-lipoic acid and ambroxole (FIG. 6a), and α-lipoic acid and enalapril (FIG. 6b) on the intracellular thiol expression of the peritoneal macrophages in the time kinetics is presented. The membrane expression of thiols was determined by means of the mean fluorescence intensity (mfi) of the sample (3000 cells/measurement) after coupling to a chloro-methylfluorochrome derivative.

T lymphocytes = test: activation markers CD69, CD25, CD71 of phytohemagglutinin-stimulated T lymphocytes; settings: thiol-deficient cells, culture period of 72 hours, FIG. 3
Description: In the culture batch described under example 1, human T lymphocytes were stimulated with […] of phyto-hemagglutinin. […] The influence of the combinations used according to the invention on the activation markers CD69 (early activation antigen), CD25 (intermediate activation antigen) and CD71 (late activation antigen) of T lymphocytes was investigated. In FIG. 3, the action of the combination of α-lipoic acid and ambroxole (FIG. 3a), and α-lipoic acid and enalapril (FIG. 3b) on the activation index of T lymphocytes is shown. Compared with normal T lymphocytes (activation index=1.0), in thiol-deficient cells a clear lowering of the activatability, confirming the cellular functional disorder, is to be noted. […] It can thus be concluded that the normalization of the cellular thiol status mediated by the combined use of α-lipoic acid and the respective effectors of the glutathione metabolism is accompanied by a restitution of the cellular functionality.

peritoneal macrophages [4] = test: cytokine synthesis of peritoneal macrophages (enzyme immunoassay); settings: treatment period of 6 days (n=10); α-lipoic acid 50 μM, ambroxole 10 μM, enalapril 5 μM, captopril 10 μM
Description: In parallel to this, in this experimental batch the cell culture supernatants were recovered and the cytokines interleukin-6 (IL-6) and interleukin-1 receptor antagonist (IL-1ra) contained therein, synthesized and secreted by the peritoneal macrophages, were determined.

peritoneal macrophages [5] = test: cellular thiol expression of peritoneal macrophages in kidney replacement therapy; settings: time kinetics over 14 days (n=12); FIG. 4
Description: Peritoneal macrophages were isolated from the effluate of the peritoneal dialysis of high-grade renally insufficient patients, taken up in cell culture medium and incubated in a gas incubator at 37° C., a relative humidity of 98% and 7.5% relative air-CO2 content. In order to test the influence of the combinations used according to the invention on the thiol status of the peritoneal macrophages, in each case a fraction was treated with α-lipoic acid, the effector of the glutathione metabolism ambroxole or the ACE inhibitor enalapril or with the combination of α-lipoic acid/ambroxole or α-lipoic acid/enalapril, while in each case a further fraction was used as an untreated control. The determination of the cellular thiol status was carried out by means of the measuring method described under 1. The membrane expression of thiols was determined by means of the mean fluorescence intensity (mfi) of the sample (3000 cells/measurement) after coupling to a chloromethylfluorochrome derivative. In FIG. 4, the effect of the combination of α-lipoic acid and ambroxole (FIG. 4a), and α-lipoic acid and enalapril (FIG. 4b) in the time kinetics over 14 days is shown (n=12).

[6] = system: lymphocytes (peripheral immune cells); test: intracellular thiol expression of peripheral immune cells (CMFDA flow cytofluorimetry); settings: α-lipoic acid 50 μM, captopril 10 μM, combination at the same concentrations
Description: Peripheral immune cells of healthy donors (n=9) were isolated from the peripheral blood by means of density gradient centrifugation. Lymphocytes having a donor-dependent relative proportion of about 90% in this case normally represent the main fraction of the resulting total population of mononuclear cells. 10% of the mononuclear cells are represented by monocytes. The mononuclear cells obtained were taken up in special cell culture media and incubated in a gas incubator at 37° C., a relative humidity of 98% and 5% relative air-CO2 content. The metabolism of the primarily resting immune cells was activated by means of mitogenic stimulation (0.5 μg/ml of phytohemagglutinin). In order to test the influence of the combinations used according to the invention on the thiol status of thiol-deficient immune cells, these were artificially thiol-depleted. This was carried out by culturing in thiol-deficient media (RPMI 1603) according to tested procedures. Comparison cultures using whole media (RPMI 1640) served for the definition of the best possible normal value under culture conditions. […] Primarily nonfluorogenic CMFDA is in this case passively taken up by the cell. Binding to cytoplasmic thiol groups takes place via the chloromethyl radical. After removal of the acetate radicals by nonspecific cellular esterases, this, now cell membrane-impermeable complex becomes fluorogenic at an excitation wavelength λex=490 nm with an emission wavelength λem=520 nm. The mean fluorescence intensity of the sample (10,000 cells) is directly proportional to the concentration of the intracellular thiol groups. In FIG. 1, the action of the combination of α-lipoic acid and ambroxole (FIG. 1a) and α-lipoic acid and enalapril (FIG. 1b) on the intracellular thiol expression of lymphocytes is shown. […] The data are shown as the ratio of the cellular fluorescence intensity for calibration particles (beads) in each case analyzed in parallel. The active compound concentration of the respective combination is identical to the concentrations of the individual components.

peripheral immune cells = test: membrane-bound thiol expression of peripheral immune cells (CMTMR flow cytofluorimetry); settings: α-lipoic acid 50 μM, captopril 10 μM, combination at the same concentrations
Description: Peripheral immune cells of healthy donors (n=9) were isolated from the peripheral blood by means of density gradient centrifugation. Lymphocytes having a donor-dependent relative proportion of about 90% in this case normally represent the main fraction of the resulting total population of mononuclear cells. 10% of the mononuclear cells are represented by monocytes. The mononuclear cells obtained were taken up in special cell culture media and incubated in a gas incubator at 37° C., a relative humidity of 98% and 5% relative air-CO2 content. The metabolism of the primarily resting immune cells was activated by means of mitogenic stimulation (0.5 μg/ml of phytohemagglutinin). In order to test the influence of the combinations used according to the invention on the thiol status of thiol-deficient immune cells, these were artificially thiol-depleted. This was carried out by culturing in thiol-deficient media (RPMI 1603) according to tested procedures. Comparison cultures using whole media (RPMI 1640) served for the definition of the best possible normal value under culture conditions. The expression of membrane-bound thiol groups was likewise determined by flow cytofluorimetry. In this connection, chloromethyltetramethylrhodamine (CMTMR) was employed as a thiol conjugate under the conditions of a blocked membrane potential and of an inhibited diffusion capacity of the cells. The fluorescence intensity of the bound fluorochrome molecules on the cell membrane is in this case in turn proportional to the amount of the thiol groups on the cell surface.

CCOC(=O)[C@H](CCc1ccccc1)NC(C)C(=O)N1CCCC1C(=O)O (stereo in doubt) [Enalapril, 1-{N—[(S)-1-ethoxycarbonyl-3-phenylpropyl]-L-alanyl}-L-proline]
CD15/69 (peritoneal macrophages [1]): 1.19 ± 0.12 | CD11c/71 (peritoneal macrophages [1]): 1.10 ± 0.14 | CD11c (peritoneal macrophages [1]): 1.23 ± 0.22 | CD15 (peritoneal macrophages [1]): 1.21 ± 0.22 | increase in the phagocytosis rate in relation to the untreated control, factor (peritoneal macrophages [2]): 1.53 | Phagocytosis rate (peritoneal macrophages [2]): 567 ± 59 mfi/10,000 cells | membrane-bound thiol expression in the dialysis model (in words) (peritoneal macrophages [3]): marginal effects | effect on the activation index of T lymphocytes (in words) (T lymphocytes): only equivalent in the case of the effectuation of the CD25 antigen of the α-lipoic acid | IL-1ra (peritoneal macrophages [4]): 121.1 ± 16.9 ng/10^6 cells | IL-6 (peritoneal macrophages [4]): 41.7 ± 7.3 ng/10^6 cells

Nc1c(Br)cc(Br)cc1CNC1CCC(O)CC1 (stereo not drawn) [Ambroxole, hydrochloride]
CD15/69 (peritoneal macrophages [1]): 0.98 ± 0.11 | CD11c/71 (peritoneal macrophages [1]): 0.96 ± 0.1 | CD11c (peritoneal macrophages [1]): 1.01 ± 0.09 | CD15 (peritoneal macrophages [1]): 0.98 ± 0.13 | effect on the cellular thiol expression of peritoneal macrophages (in words) (peritoneal macrophages [5]): no effect | increase in the phagocytosis rate in relation to the untreated control, factor (peritoneal macrophages [2]): 1.35 | Phagocytosis rate (peritoneal macrophages [2]): 501 ± 52 mfi/10,000 cells | membrane-bound thiol expression in the dialysis model (in words) (peritoneal macrophages [3]): marginal effects | effect on the activation index of T lymphocytes (in words) (T lymphocytes): no influence on one of the three activation markers | IL-1ra (peritoneal macrophages [4]): 118.6 ± 21.3 ng/10^6 cells | IL-6 (peritoneal macrophages [4]): 51.8 ± 8.1 ng/10^6 cells

C[C@H](CS)C(=O)N1CCC[C@H]1C(=O)O [Captopril, 1-[(2S)-3-mercapto-2-methylpropionyl]-L-proline]
CD15/69 (peritoneal macrophages [1]): 1.69 ± 0.21 | CD11c/71 (peritoneal macrophages [1]): 1.52 ± 0.16 | CD11c (peritoneal macrophages [1]): 1.26 ± 0.24 | CD15 (peritoneal macrophages [1]): 1.19 ± 0.14 | intracellular thiol expression ([6]; culture period 0 d): 2.88 ± 0.20 mfiBeads/Ratio | intracellular thiol expression ([6]; culture period 1 d): 2.80 ± 0.21 mfiBeads/Ratio | intracellular thiol expression ([6]; culture period 2 d): 2.76 ± 0.22 mfiBeads/Ratio | intracellular thiol expression ([6]; culture period 3 d): 2.49 ± 0.26 mfiBeads/Ratio | intracellular thiol expression ([6]; culture period 4 d): 2.21 ± 0.36 mfiBeads/Ratio | intracellular thiol expression ([6]; culture period 6 d): 1.83 ± 0.33 mfiBeads/Ratio | intracellular thiol expression ([6]; culture period 8 d): 1.02 ± 0.39 mfiBeads/Ratio | intracellular thiol expression ([6]; culture period 10 d): 0.91 ± 0.46 mfiBeads/Ratio | intracellular thiol expression ([6]; culture period 12 d): 0.76 ± 0.49 mfiBeads/Ratio | intracellular thiol expression ([6]; culture period 14 d): 0.75 ± 0.56 mfiBeads/Ratio | Phagocytosis rate (peritoneal macrophages [2]): 653 ± 43 mfi/10,000 cells | IL-1ra (peritoneal macrophages [4]): 129.4 ± 25.1 ng/10^6 cells | IL-6 (peritoneal macrophages [4]): 42.9 ± 7.7 ng/10^6 cells | Membrane-bound thiol expression (peripheral immune cells; culture period 0 d): 2.37 ± 0.45 mfiBeads/Ratio | Membrane-bound thiol expression (peripheral immune cells; culture period 1 d): 2.63 ± 0.39 mfiBeads/Ratio | Membrane-bound thiol expression (peripheral immune cells; culture period 2 d): 2.54 ± 0.41 mfiBeads/Ratio | Membrane-bound thiol expression (peripheral immune cells; culture period 3 d): 2.52 ± 0.38 mfiBeads/Ratio | Membrane-bound thiol expression (peripheral immune cells; culture period 4 d): 2.50 ± 0.41 mfiBeads/Ratio | Membrane-bound thiol expression (peripheral immune cells; culture period 6 d): 2.46 ± 0.50 mfiBeads/Ratio | Membrane-bound thiol expression (peripheral immune cells; culture period 8 d): 2.01 ± 0.39 mfiBeads/Ratio | Membrane-bound thiol expression (peripheral immune cells; culture period 10 d): 1.68 ± 0.29 mfiBeads/Ratio | Membrane-bound thiol expression (peripheral immune cells; culture period 12 d): 1.02 ± 0.51 mfiBeads/Ratio | Membrane-bound thiol expression (peripheral immune cells; culture period 14 d): 0.99 ± 0.46 mfiBeads/Ratio
